Source: patent US8574563B2 (Bristol-Myers Squibb Company, priority 2006, dated 2013)
Read-outs that look alike come from different tables or passages of the source.

Test system: HCV 1b-377-neo replicon cells
Experiment: HCV replicon assay, HCV 1b-377-neo replicon cells (1b FRET)
Type: cell-based, Hepatitis C virus genotype 1b
Conditions: HCV 1b-377-neo replicon cells, HCV 1b genotype; for EC50: read-out: EC50 range against HCV 1b (Table 2, Range)
Method in brief: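 FRET-based replicon assay in HCV 1b-377-neo cells, including a comparison line carrying the NS5A Y2065H mutation that confers resistance to a reference compound.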

With CCC[C@H](NC(=O)OC)C(=O)N1CCC[C@H]1c1ncc(-c2ccc(-c3ccc(-c4cnc([C@@H]5CCCN5C(=O)[C@H](CCC)NC(=O)OC)[nH]4)cc3)cc2)[nH]1 [Example M27, methyl ((1S)-1-(((2S)-2-(5-(4′-(2-((2S)-1-((2S)-2-((methoxycarbonyl)amino)pentanoyl)-2-pyrroldinyl)-1H-imidazol-5-yl)-4-biphenylyl)-1H-imidazol-2-yl)-1-pyrrolidinyl)carbonyl)butyl)carbamate] the EC50 was 1 to 99 nM.
Work on COC(=O)N[C@H](C(=O)N1CCC[C@@H]1c1ncc(-c2ccc(-c3ccc(-c4cnc([C@H]5CCCN5C(=O)[C@@H](NC(=O)OC)C(C)C)[nH]4)cc3)cc2)[nH]1)C(C)C [Example M28, methyl ((1S)-1-(((2R)-2-(5-(4′-(2-((2R)-1-((2S)-2-((methoxycarbonyl)amino)-3-methylbutanoyl)-2-pyrrolidinyl)-1H-imidazol-5-yl)-4-biphenylyl)-1H-imidazol-2-yl)-1-pyrrolidinyl)carbonyl)-2-methylpropyl)carbamate] yielded an EC50 (Hepatitis C virus) of 1000 to 10000 nM.
COC(=O)N[C@H](C(=O)N1CCC[C@@H]1c1ncc(-c2ccc(-c3ccc(-c4cnc([C@@H]5CCCN5C(=O)[C@@H](NC(=O)OC)C(C)C)[nH]4)cc3)cc2)[nH]1)C(C)C [Example M28-2, methyl ((1S)-1-(((2S)-2-(5-(4′-(2-((2R)-1-((2S)-2-((methoxycarbonyl)amino)-3-methylbutanoyl)-2-pyrrolidinyl)-1H-imidazol-5-yl)-4-biphenylyl)-1H-imidazol-2-yl)-1-pyrrolidinyl)carbonyl)-2-methylpropyl)carbamate] was tested, and the EC50 (Hepatitis C virus) was 100 to 999 nM.
In the case of COC(=O)N[C@@H](C(=O)N1CCC[C@@H]1c1ncc(-c2ccc(-c3ccc(-c4cnc([C@H]5CCCN5C(=O)[C@H](NC(=O)OC)C5CC5)[nH]4)cc3)cc2)[nH]1)C1CC1 [Example M29], the “EC50 range against HCV 1b (Table 2, Range)” value is reported as “>A”.
In the case of CCOC(=O)N[C@H](C)C(=O)N1CCC[C@H]1c1ncc(-c2ccc(-c3ccc(-c4cnc([C@@H]5CCCN5C(=O)[C@@H](c5ccccc5)N(CC)CC)[nH]4)cc3)cc2)[nH]1 [Example M30, ethyl ((1R)-2-((2S)-2-(5-(4′-(2-((2S)-1-((2R)-2-(diethylamino)-2-phenylacetyl)-2-pyrrolidinyl)-1H-imidazol-5-yl)-4-biphenylyl)-1H-imidazol-2-yl)-1-pyrrolidinyl)-1-methyl-2-oxoethyl)carbamate], the EC50 (Hepatitis C virus) is reported as 1 to 99 nM.
For CCOC(=O)N[C@@H](C)C(=O)N1CCC[C@H]1c1ncc(-c2ccc(-c3ccc(-c4cnc([C@@H]5CCCN5C(=O)[C@@H](c5ccccc5)N(CC)CC)[nH]4)cc3)cc2)[nH]1 [Example M31, ethyl ((1S)-2-((2S)-2-(5-(4′-(2-((2S)-1-((2R)-2-(diethylamino)-2-phenylacetyl)-2-pyrrolidinyl)-1H-imidazol-5-yl)-4-biphenylyl)-1H-imidazol-2-yl)-1-pyrrolidinyl)-1-methyl-2-oxoethyl)carbamate], the EC50 (Hepatitis C virus) was 1 to 99 nM.
With CCN(CC)[C@@H](C(=O)N1CCC[C@H]1c1ncc(-c2ccc(-c3ccc(-c4cnc([C@@H]5CCCN5C(=O)[C@@H]5CCC(=O)N5)[nH]4)cc3)cc2)[nH]1)c1ccccc1 [Example M32, (5S)-5-(((2S)-2-(5-(4′-(2-((2S)-1-((2R)-2-(diethylamino)-2-phenylacetyl)-2-pyrrolidinyl)-1H-imidazol-5-yl)-4-biphenylyl)-1H-imidazol-2-yl)-1-pyrrolidinyl)carbonyl)-2-pyrrolidinone] the EC50 (Hepatitis C virus) was 100 to 999 nM.
CCN(CC)[C@@H](C(=O)N1CCC[C@H]1c1ncc(-c2ccc(-c3ccc(-c4cnc([C@@H]5CCCN5C(=O)C5(NC(=O)OC)CC5)[nH]4)cc3)cc2)[nH]1)c1ccccc1 [Example M33, methyl (1-(((2S)-2-(5-(4′-(2-((2S)-1-((2R)-2-(diethylamino)-2-phenylacetyl)-2-pyrrolidinyl)-1H-imidazol-5-yl)-4-biphenylyl)-1H-imidazol-2-yl)-1-pyrrolidinyl)carbonyl)cyclopropyl) carbamate] was tested, and the EC50 was 1 to 99 nM.
CCN(CC)[C@@H](C(=O)N1CCC[C@H]1c1ncc(-c2ccc(-c3ccc(-c4cnc([C@@H]5CCCN5C(=O)C(C)(C)NC(=O)OC)[nH]4)cc3)cc2)[nH]1)c1ccccc1 [Example M34, methyl (2-((2S)-2-(5-(4′-(2-((2S)-1-((2R)-2-(diethylamino)-2-phenylacetyl)-2-pyrrolidinyl)-1H-imidazol-5-yl)-4-biphenylyl)-1H-imidazol-2-yl)-1-pyrrolidinyl)-1,1-dimethyl-2-oxoethyl)carbamate] showed an EC50 (Hepatitis C virus) of 1 to 99 nM.
Work on CCN(CC)[C@H](C)C(=O)N1CCC[C@H]1c1ncc(-c2ccc(-c3ccc(-c4cnc([C@@H]5CCCN5C(=O)[C@@H](c5ccccc5)N(CC)CC)[nH]4)cc3)cc2)[nH]1 [Example M35, (2R)-1-((2S)-2-(5-(4′-(2-((2S)-1-((2R)-2-(diethylamino)-2-phenylacetyl)-2-pyrrolidinyl)-1H-imidazol-5-yl)-4-biphenylyl)-1H-imidazol-2-yl)-1-pyrrolidinyl)-N,N-diethyl-1-oxo-2-propanamine] yielded an EC50 (Hepatitis C virus) of 1 to 99 nM.
CCN(CC)[C@@H](C)C(=O)N1CCC[C@H]1c1ncc(-c2ccc(-c3ccc(-c4cnc([C@@H]5CCCN5C(=O)[C@@H](c5ccccc5)N(CC)CC)[nH]4)cc3)cc2)[nH]1 [Example M36, (2S)-1-((2S)-2-(5-(4′-(2-((2S)-1-((2R)-2-(diethylamino)-2-phenylacetyl)-2-pyrrolidinyl)-1H-imidazol-5-yl)-4-biphenylyl)-1H-imidazol-2-yl)-1-pyrrolidinyl)-N,N-diethyl-1-oxo-2-propanamine] showed an EC50 (Hepatitis C virus) of 1 to 99 nM.
CCN(CC)[C@@H](C(=O)N1CCC[C@H]1c1ncc(-c2ccc(-c3ccc(-c4cnc([C@@H]5CCCN5C(=O)c5ncco5)[nH]4)cc3)cc2)[nH]1)c1ccccc1 [Example M37, (1R)-N,N-diethyl-2-((2S)-2-(5-(4′-(2-((2S)-1-(1,3-oxazol-2-ylcarbonyl)-2-pyrrolidinyl)-1H-imidazol-5-yl)-4-biphenylyl)-1H-imidazol-2-yl)-1-pyrrolidinyl)-2-oxo-1-phenylethanamine] showed an EC50 (Hepatitis C virus) of 1 to 99 nM.
Work on CCN(CC)[C@@H](C(=O)N1CCC[C@H]1c1ncc(-c2ccc(-c3ccc(-c4cnc([C@@H]5CCCN5C(=O)c5cccnc5)[nH]4)cc3)cc2)[nH]1)c1ccccc1 [Example M38, (1R)-N,N-diethyl-2-oxo-1-phenyl-2-((2S)-2-(5-(4′-(2-((2S)-1-(3-pyridinylcarbonyl)-2-pyrrolidinyl)-1H-imidazol-5-yl)-4-biphenylyl)-1H-imidazol-2-yl)-1-pyrrolidinyl)ethanamine] yielded an EC50 (Hepatitis C virus) of 1 to 99 nM.
CCN(CC)[C@@H](C(=O)N1CCC[C@H]1c1ncc(-c2ccc(-c3ccc(-c4cnc([C@@H]5CCCN5C(=O)[C@@H](C)O)[nH]4)cc3)cc2)[nH]1)c1ccccc1 [Example M39, (2R)-1-((2S)-2-(5-(4′-(2-((2S)-1-((2R)-2-(diethylamino)-2-phenylacetyl)-2-pyrrolidinyl)-1H-imidazol-5-yl)-4-biphenylyl)-1H-imidazol-2-yl)-1-pyrrolidinyl)-1-oxo-2-propanol] showed an EC50 (Hepatitis C virus) of 1 to 99 nM.
CCN(CC)[C@@H](C(=O)N1CCC[C@H]1c1ncc(-c2ccc(-c3ccc(-c4cnc([C@@H]5CCCN5C(=O)[C@H](C)O)[nH]4)cc3)cc2)[nH]1)c1ccccc1 [Example M40, (2S)-1-((2S)-2-(5-(4′-(2-((2S)-1-((2R)-2-(diethylamino)-2-phenylacetyl)-2-pyrrolidinyl)-1H-imidazol-5-yl)-4-biphenylyl)-1H-imidazol-2-yl)-1-pyrrolidinyl)-1-oxo-2-propanol] was tested, and the EC50 (Hepatitis C virus) was 1 to 99 nM.
For CCN(CC)[C@@H](C(=O)N1CCC[C@H]1c1ncc(-c2ccc(-c3ccc(-c4cnc([C@@H]5CCCN5C(=O)C5(NC(=O)OC)CCC5)[nH]4)cc3)cc2)[nH]1)c1ccccc1 [Example M41, methyl (1-(((2S)-2-(5-(4′-(2-((2S)-1-((2R)-2-(diethylamino)-2-phenylacetyl)-2-pyrrolidinyl)-1H-imidazol-5-yl)-4-biphenylyl)-1H-imidazol-2-yl)-1-pyrrolidinyl)carbonyl)cyclobutyl) carbamate], the EC50 was 1 to 99 nM.
CCN(CC)[C@@H](C(=O)N1CCC[C@H]1c1ncc(-c2ccc(-c3ccc(-c4cnc([C@@H]5CCCN5C(=O)C5(NC(=O)OC)CCCC5)[nH]4)cc3)cc2)[nH]1)c1ccccc1 [Example M42, methyl (1-(((2S)-2-(5-(4′-(2-((2S)-1-((2R)-2-(diethylamino)-2-phenylacetyl)-2-pyrrolidinyl)-1H-imidazol-5-yl)-4-biphenylyl)-1H-imidazol-2-yl)-1-pyrrolidinyl)carbonyl)cyclopentyl) carbamate] was tested, and the EC50 was 1 to 99 nM.
For CCCN(CCC)[C@@H](C)C(=O)N1CCC[C@H]1c1ncc(-c2ccc(-c3ccc(-c4cnc([C@@H]5CCCN5C(=O)[C@@H](c5ccccc5)N(CC)CC)[nH]4)cc3)cc2)[nH]1 [Example M43, N-((1S)-2-((2S)-2-(5-(4′-(2-((2S)-1-((2R)-2-(diethylamino)-2-phenylacetyl)-2-pyrrolidinyl)-1H-imidazol-5-yl)-4-biphenylyl)-1H-imidazol-2-yl)-1-pyrrolidinyl)-1-methyl-2-oxoethyl)-N-propyl-1-propanamine], the EC50 (Hepatitis C virus) was 1 to 99 nM.
CCN(CC)[C@@H](C(=O)N1CCC[C@H]1c1ncc(-c2ccc(-c3ccc(-c4cnc([C@@H]5CCCN5C(=O)[C@@H]5COC(=O)N5)[nH]4)cc3)cc2)[nH]1)c1ccccc1 [Example M44, (4S)-4-(((2S)-2-(5-(4′-(2-((2S)-1-((2R)-2-(diethylamino)-2-phenylacetyl)-2-pyrrolidinyl)-1H-imidazol-5-yl)-4-biphenylyl)-1H-imidazol-2-yl)-1-pyrrolidinyl)carbonyl)-1,3-oxazolidin-2-one] showed an EC50 (Hepatitis C virus) of 100 to 999 nM.
Work on CCN(CC)[C@@H](C(=O)N1CCC[C@H]1c1ncc(-c2ccc(-c3ccc(-c4cnc([C@@H]5CCCN5C(=O)[C@@H](C(C)C)N(CC)CC)[nH]4)cc3)cc2)[nH]1)c1ccccc1 [Example M45, (2R)-1-((2S)-2-(5-(4′-(2-((2S)-1-((2R)-2-(diethylamino)-2-phenylacetyl)-2-pyrrolidinyl)-1H-imidazol-5-yl)-4-biphenylyl)-1H-imidazol-2-yl)-1-pyrrolidinyl)-N,N-diethyl-3-methyl-1-oxo-2-butanamine] yielded an EC50 (Hepatitis C virus) of 1 to 99 nM.
